What was measured:
Assay type in all cases: cell-based, Clostridium autoethanogenum
[1] = test system: C. autoethanogenum DSM 23693; assay: Autotrophic growth and acetate production on CO/CO2/H2 gas mix with arginine supplementation; conditions: for decrease of doubling time by arginine supplementation: vs control without arginine
Experimental: Growth was carried out in PETC-MES medium without yeast extract (Table 1) using standard anaerobic techniques (Hungate, Meth Microbiol, 3B: 117-132, 1969; Wolfe, Adv Microb Physiol, 6: 107-146, 1971) and 22 psi of CO/CO2/H2 gas mix (composition: 50% CO, 20% CO2, […], 28% N2) headspace pressure.
To study effect of supplementation with arginine, 5 g/L of arginine was added to the media and culture growth and metabolite production during autotrophic growth was compared to the control without arginine.
Growth was followed by measuring the optical density using a Thermo Genesys 20 spectrophotometer. […] Samples were prepared by diluting 400 μL with 100 μL of 5-sulfosalicylic acid solution (1% w/v in 1 M sulphuric acid), followed by a 3 minute centrifugation at 14,000 rpm; the supernatant was transferred to a glass vial for analysis. Separation was carried out with a 10 μL injection on to an Alltech IOA-2000 column (150 mm×6.5 mm×8 μm) at 0.7 mL/min and 65° C. under isocratic conditions, using 5 mM sulphuric acid mobile phase.
The experiment was carried out in two biological repeats with triplicate cultures (n=3) for each condition in a volume of 40 mL media in 1 L Schott bottles at 37° C. with orbital shaking (120 rpm, shake orbit). In each case, acetogenic strain C. autoethanogenum DSM 23693 was pre-cultured in PETC-MES without yeast extract to an OD600 nm of 0.3 and a single preculture was used for inoculation.
In the first experiment to the following conditions: PETC-MES without yeast extract+22 psi syngas (initial OD600 nm=0.005) and PETC-MES without yeast extract+22 psi syngas+5 g arginine/L (initial OD600 nm=0.005).
In the repeat of the experiment, a culture was also inoculated into arginine supplemented media but without the addition of CO/CO2/H2 gas (22 psi of 100% N2 as headspace). This experiment comprised the following three conditions: PETC-MES without yeast extract+22 psi syngas (initial OD600 nm=[…]), PETC-MES without yeast extract+22 psi syngas+5 g arginine/L (initial OD600 nm=0.003), and PETC-MES without yeast extract+5 g arginine/L (initial OD600 nm=0.003).

[2] = test system: C. autoethanogenum DSM10061; assay: Heterotrophic batch growth in YE-free PETC-MES media with amino acid formulations + fructose (OD600)
Description: YE-free PETC-MES media was supplemented with various amino acid formulations—20AA, 7AA, 8AA, 14AA, 12AA, 4AA and Arginine (Table 2)—to identify if any amino acids are supporting growth. Solutions were filter sterilized and made anoxic by sparging N2.
First, a 20AA medium was designed based on the biomass amino acid composition of Clostridium acetobutylicum (Lee et al. 2008) with final amino acid concentrations theoretically supporting production of 1 gDCW/L of biomass.
Growth studies were carried out in batch cultivations in a volume of 50 mL media in 125 mL serum bottles with nitrogen in the headspace under shaking (unless otherwise noted) at 37° C. Optical density (OD) was measured at 600 nm with the reading ˜0.5 outside the anaerobic chamber against fully oxidized medium as reference.

[3] = test system: C. autoethanogenum DSM10061; assay: Continuous biomass monitoring with BugLab device in serum bottle; conditions: before arginine depletion
Experimental: As the initial fast growth was unexpected, only a couple of samples could be used for calculating tD. Thus, a BugLab biomass monitoring device was attached to a serum bottle on 4AA medium to continuously monitor the increase of biomass before arginine is depleted from the medium. This experiment confirmed the fast growth on 4AAs before arginine depletion as tD was calculated to be ˜2 h (FIG. 10).
To obtain a more accurate value of tD on Arginine medium, a BugLab experiment was performed to continuously monitor the increase of biomass before arginine runs out. This experiment confirmed the fast growth before arginine runs out as tD was calculated to be ˜3 h (FIG. 14).

SMILES: N=C(N)NCCC[C@H](N)C(=O)O [arginine]
- growth on arginine without CO/CO2/H2 gas ([1]; 5 g arginine/L, N2 headspace, 48 hours): no growth observed
- net acetate production ([1]; 5 g arginine/L, until pause in growth at OD600≈0.8): no net acetate production was observed
- doubling time tD ([1]; autotrophic, 5 g/L arginine, 22 psi CO/CO2/H2, until OD600≈0.8): 3.5 h
- specific growth rate μ ([1]; autotrophic, 5 g/L arginine, until OD600≈0.8): 0.198
- decrease of doubling time by arginine supplementation [1]: 52%
- decrease of doubling time by arginine supplementation ([1]; listed as Arginine): over 50%
- doubling time tD in second stage after arginine depletion ([2]; 5 g arginine/L + 5 g fructose/L): ~40 h
- growth faster compared to supplementation with yeast extract ([2]; vs 1 g/L yeast extract): ~3 fold
- doubling time tD (BugLab) [3]: ~3 h
- specific growth rate (BugLab) [3]: 0.21 h⁻¹

— patent publication US11965201B2, “Arginine supplementation to improve efficiency in gas fermenting acetogens” (LanzaTech NZ, Inc., priority 2015, dated 2024)
